Values joined by “and” are separate entries in the source; they are usually repeats but may differ in a detail not shown here. Equal entries are not always repeated.
How the values were obtained:
[1] = Pharmacokinetics study, Mn^2+ in whole blood by ICP-MS; format: in vivo; settings: SD rats, caudal vein 0.1 mmol/kg, non-compartment model
Procedure: Totally 8 SD rats, 3 female rats and 5 male rats, weighed 220 to 240 g, were anesthetized by intraperitoneal injection of 3% pentobarbital sodium (50 mg/kg) and fixed in supine position, followed by removing neck hair and disinfecting routinely for later use.
Catheterization of left carotid artery comprises steps as follows: making a 20 mm longitudinal incision from the 3 mm left side of the median cervical line (the line from the sternum to the mandible) and 7 mm above the sternum; dissecting the skin to expose the subcutaneous tissue, and performing a blunt layer-by-layer dissection until the carotid artery was visualized; separating […] from its accompanied veins by blunt dissection; ligating distal portion and proximal portion of the heart respectively, wherein the distance between the nodes was 2.5-3.5 cm; inserting an indwelling needle into the artery near the node at the distal portion of the heart and fixing with a hemostatic clip, taking the needle out and releasing the node at the proximal portion of the heart; and injecting heparin lithium (150 μg/kg) to perform systemic heparinization in body.
Caudal vein was rapidly injected (<5s) with KBR0826 solution (0.05 mmol/mL) at a dose of 0.1 mmol/kg. Before injection and within 1 min, 2 min, 3 min, 5 min, 8 min, 13 min, 20 min, 30 min, and 50 min after the injection, 0.1 mL of carotid blood was respectively collected and placed in a 0.5 mL EP tube and stored at −20° C.
ICP-MS was configured with a power of 1150 W, a flow rate of argon for atomization gas of 0.95 L·min^−1, a flow rate of argon for auxiliary gas of 1.2 L·min^−1, a flow rate of argon for plasma gas of 18 L·min^−1, pump speed of 20 r·min^−1, an analytic mode being standard mode, repetition sampling in triple.
A set of standard solution was prepared with standard reagents (PerkinElmer, […] (1000 ppb): Ag, Al, As, Cs, Cu, Sr, Se, Mn, etc.) at different concentrations, i.e., at 1.0 ppb, 10 ppb, 50 ppb, 100 ppb, 200 ppb and 1000 ppb, to establish a standard curve (as shown in FIG. 3), and R^2 for the linear equation was >0.9999.
20 μL of sample (whole blood) was collected and diluted to 6 to 10 mL with 1% HNO3, such that the concentration of Mn^2+ ranged from 1 ppb to 100 ppb; sample IDs were generated and then the samples were measured, and Mn^2+ concentrations of the sample solutions were calculated according to the response intensity and the standard curve.
PKSolver 2.0 was used for calculating relevant pharmacokinetic parameters.

QSG7701 hepatocyte line = test: Hepatocyte toxicity test (MTT); format: cell-based, human
Procedure: One or two days later, when the cell density meet the requirements of passage (the cell growth rate reaches 80-90%), the cells were washed 1 to 2 times with PBS, and then PBS was removed and 1 mL trypsin was added to completely cover the surface of the cells for 1 to 2 minutes, followed by observing under an inverted microscope. When more than 90% of the cells have become large and round and could be shaken gently to remove a little, complete medium (DMEM medium:FBS:antibiotic=100:10:1) was immediately added to stop digestion. The cells were blow and separated, transferred to a 15 mL centrifuge tube, which was centrifuged at 1000 rpm for 5 min at room temperature, then the supernatant was removed. The cells were transferred to a […] petri dish, 5 to 10 ml fresh complete medium was added for further culture. Culture medium was changed after 2-3 days or subcultured in a ratio of 1:2 and 1:3.
2) Cryopreservation: when the cells were in the logarithmic growth phase and the growth state was good, cryopreservation was selected and a cryopreservation solution (DMEM:FBS:DMSO=6:3:1) was prepared as above, the cells were collected after stopping digestion and centrifuging in a centrifuge tube. The cells were suspended in the cryopreservation solution, the cell concentration (lx 10^6/mL to 10×10^6/mL) were adjusted and then the cells were divided into cryopreservation tubes, the cell type, date, cryopreserved person, and passage times were recorded. The tubes were placed in a gradient freezer box in a −80° C. freezer and transferred to a liquid nitrogen tank for storage the next day.
3) Cell recovery: a cryovial containing QSG7701 was taken out from the liquid nitrogen tank and put in a 37° C. water bath for 1 to 2 minutes and shaken quickly to thaw. The thawed cell fluid was transferred to a 15 mL centrifuge tube, centrifuged at 1000 rpm for 5 min at room temperature, then the supernatant was removed, and 5 to 10 mL fresh complete culture medium was added into it, the cell type, date, and the name of the culture person were recorded, the cells were cultured in a 37° C. incubator with 5% CO2. […]
4) Finally, the 96-well plate was taken out, the medium was removed, and 100 μl DMSO was added to the plate, shaken horizontally and mixed for 2-3 minutes to fully dissolve the crystals, and the OD value was read at the detection line of 595 nm with a microplate reader.
Origin 9.0 software was used for data mapping, and measurement data were expressed as mean±standard deviation (±sd); SPSS14.0 statistical software was used for data statistics, and univariate analysis was used.

O=C([O-])CN(CP(=O)([O-])O)C1CCCCC1N(CC(=O)[O-])CP(=O)([O-])O.[Mn+2].[Na+].[Na+] (stereo not drawn) [KBR0826]
AUC0-inf [1]: 734.55 ± 333.06 mg·min/L | AUC0-t [1]: 712.59 ± 325.70 mg·min/L | AUMC0-inf [1]: 8419.63 ± 9547.34 mg/L · min^2 | C0 [1]: 616.61 ± 568.85 µg/mL | MRT0-inf [1]: 11.26 ± 8.93 min | V [1]: 0.38 ± 0.45 L/kg | Vss [1]: 0.17 ± 0.30 L/kg | t1/2 (plasma half-life) [1]: 23 min and 22.87 ± 13.04 min | survival rate of the QSG7701 hepatocyte line (QSG7701 hepatocyte line; 0.02 mmol/L, 0.1 mmol/L or 0.5 mmol/L, each detection time point (6 h, 12 h, 24 h, 48 h), MTT, OD 595 nm): does not decrease significantly | survival rate of the QSG7701 hepatocyte line (QSG7701 hepatocyte line; 2.5 mmol/L, 24 h and 48 h, p<0.05): decrease significantly | survival rate of the QSG7701 hepatocyte line (QSG7701 hepatocyte line; 12.5 mmol/L, at 12 h, p<0.05): decreases significantly | inhibitory effect on the proliferation of QSG7701 hepatocyte line (QSG7701 hepatocyte line; within 24 hours, 25 times of the clinical dose (2.5 mmol/L)): non-obvious inhibitory effect
